Measured values: article PMC8165160, “Substrate Specificities and Inhibition Pattern of the Solute Carrier Family 10 Members NTCP, ASBT and SOAT” (Frontiers in Molecular Biosciences, 2021)
Where two headings read alike, the source gives them in different places.

Legend:
ASBT = biological target: T1, ASBT (Homo sapiens, UniProt Q12908); test: Substrate screening: sodium-dependent uptake of radiolabeled compounds in ASBT-HEK293 cells; type: cell-based; conditions: radiolabeled bile acids 1 µM, 30 min, ASBT-HEK293, vs sodium-free control
T1 construct: The full-length open reading frames of NTCP, ASBT, and SOAT were cloned; expressed in transfected cells; host or cells: Flp-In T-REX HEK293 (ASBT-HEK293), tetracycline-induced
T1 sequence (Q12908 1-348): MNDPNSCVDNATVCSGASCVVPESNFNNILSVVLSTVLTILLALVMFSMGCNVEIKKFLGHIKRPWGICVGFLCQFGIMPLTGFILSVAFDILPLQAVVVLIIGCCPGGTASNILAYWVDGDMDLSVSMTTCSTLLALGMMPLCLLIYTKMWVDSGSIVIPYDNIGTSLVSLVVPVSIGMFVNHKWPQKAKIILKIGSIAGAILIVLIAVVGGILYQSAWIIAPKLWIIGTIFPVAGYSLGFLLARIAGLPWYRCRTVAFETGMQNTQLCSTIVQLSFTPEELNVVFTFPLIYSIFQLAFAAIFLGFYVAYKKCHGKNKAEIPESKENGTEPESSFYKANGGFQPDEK
Description: (§1) Stably SLC10 transporter transfected NTCP-HEK293, ASBT-HEK293, SOAT-HEK293 cells and the HEK293-FlpIn maternal cell line were seeded on 24-well plates (if not stated otherwise for individual assays). Well plates were coated with poly-D-lysine prior to seeding of 125,000 cells per well. Cells were grown with 1 ml of standard medium per well with or without tetracycline ([…]) for 72 h to induce carrier expression before respective assays were started. HEK293-FlpIn cells were cultivated with standard medium and served as control.
(§2) Uptake experiments were initiated by replacing the preincubation buffer by 500 μL transport buffer containing the radiolabeled test compound and were performed at 37°C. Transport was terminated by removing the transport buffer and washing five-times with ice-cold PBS. Cell monolayers were lysed in 1 N NaOH with 0.1% SDS and the cell-associated radioactivity was determined by liquid scintillation counting.
(§3) FIGURE 1 Comparative substrate screening for bile acids and sulfated steroids in NTCP-, ASBT-, and SOAT-HEK293 cells. Transport assays were performed with the indicated substrates in NTCP-HEK293, ABST-HEK293, SOAT-HEK293, and HEK293-FlpIn cells. Cells were washed and equilibrated with Na^+-containing transport buffer (filled bars) or with Na^+-free transport buffer (open bars) at 37°C. For uptake, cells were incubated with radiolabeled steroid compounds at a final concentration of 200 nM in Na^+-containing or Na^+-free transport buffer for 10 min. Radiolabeled bile acids were used at 1 µM concentrations and transport was analyzed over 30 min. HEK293-FlpIn cells served as additional controls. After the indicated time intervals, cells were washed with ice-cold PBS, lysed and subjected to liquid scintillation counting. […] 3-OH, trihydroxylated BAs; 2-OH, dihydroxylated BAs; 1-OH, monohydroxylated BAs.

NTCP [1] = biological target: T2, NTCP (Homo sapiens, UniProt Q14973); test: Substrate screening: sodium-dependent uptake of radiolabeled compounds in NTCP-HEK293 cells; type: cell-based; parameters: The full-length open reading frames of NTCP, ASBT, and SOAT were cloned; expressed in transfected cells; host or cells: Flp-In T-REX HEK293 (NTCP-HEK293), tetracycline-induced; conditions: NTCP-HEK293, vs sodium-free control
T2 sequence (Q14973 1-349): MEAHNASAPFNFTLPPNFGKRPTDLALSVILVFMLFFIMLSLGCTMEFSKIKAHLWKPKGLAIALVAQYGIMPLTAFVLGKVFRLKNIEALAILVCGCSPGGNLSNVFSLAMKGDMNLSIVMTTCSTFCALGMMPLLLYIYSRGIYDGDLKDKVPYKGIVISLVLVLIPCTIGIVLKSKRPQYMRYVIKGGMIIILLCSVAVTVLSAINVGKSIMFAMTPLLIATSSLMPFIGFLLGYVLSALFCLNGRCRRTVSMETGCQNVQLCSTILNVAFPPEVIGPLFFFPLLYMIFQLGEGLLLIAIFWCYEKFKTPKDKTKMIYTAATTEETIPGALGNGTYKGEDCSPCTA
Description: as §1, §2, §3

NTCP [2] = biological target: T2, NTCP; test: Transport inhibition in NTCP-HEK293 cells; conditions: NTCP-HEK293
[3] = radiolabeled bile acids 1 µM, 30 min

Compound	Transport activity grading ASBT (mean uptake) (ASBT)	Transport activity grading NTCP (mean uptake) (NTCP [1]; [3])	also measured
C[C@H](CCC(=O)O)[C@H]1CC[C@H]2[C@@H]3[C@H](O)C[C@@H]4C[C@H](O)CC[C@]4(C)[C@H]3CC[C@]12C [Chenodeoxycholic acid]	+ (Mean uptake of bile acids “+” for values below 500)	+ (Mean uptake of bile acids “+” for values below 500)	
C[C@H](CCC(=O)O)[C@H]1CC[C@H]2[C@@H]3[C@H](O)C[C@@H]4C[C@H](O)CC[C@]4(C)[C@H]3C[C@H](O)[C@]12C [Cholic acid]	+ (Mean uptake of bile acids “+” for values below 500)	++ (“++” for values between 500 and 1000)	
C[C@H](CCC(=O)O)[C@H]1CC[C@H]2[C@@H]3CC[C@@H]4C[C@H](O)CC[C@]4(C)[C@H]3C[C@H](O)[C@]12C [Deoxycholic acid]	+ (Mean uptake of bile acids “+” for values below 500)	+ (Mean uptake of bile acids “+” for values below 500)	
C[C@]12CC[C@@H]3c4ccc(O[C@@H]5O[C@H](C(=O)O)[C@@H](O)[C@H](O)[C@H]5O)cc4CC[C@H]3[C@@H]1CCC2=O [Estrone-3β-D-glucuronide]			Transport activity grading NTCP (mean uptake) (NTCP [1]; radiolabeled steroid compounds 200 nM, 10 min): + (Mean uptake “+” for values below 10)
CC(CCC(=O)NCC(=O)O)C1CCC2C3C(O)CC4CC(O)CCC4(C)C3CCC12C (stereo not shown) [Glycochenodeoxycholic acid]	++ (“++” for values between 500 and 1000)	+++ (“+++” for values above 1000 pmol/mg protein/30 min)	
C[C@H](CCC(=O)NCC(=O)O)[C@H]1CC[C@H]2[C@@H]3[C@H](O)C[C@@H]4C[C@H](O)CC[C@]4(C)[C@H]3C[C@H](O)[C@]12C [Glycocholic acid]	++ (“++” for values between 500 and 1000)	+++ (“+++” for values above 1000 pmol/mg protein/30 min)	
CC(CCC(=O)NCC(=O)O)C1CCC2C3CCC4CC(O)CCC4(C)C3CC(O)C12C (stereo not shown) [Glycodeoxycholic acid]	++ (“++” for values between 500 and 1000)	+++ (“+++” for values above 1000 pmol/mg protein/30 min)	
C[C@H](CCC(=O)NCC(=O)O)[C@H]1CC[C@H]2[C@@H]3[C@@H](O)C[C@@H]4C[C@H](O)CC[C@]4(C)[C@H]3CC[C@]12C [Glycoursodeoxycholic acid]	++ (“++” for values between 500 and 1000)	+++ (“+++” for values above 1000 pmol/mg protein/30 min)	
C[C@H](CCC(=O)NCCS(=O)(=O)O)[C@H]1CC[C@H]2[C@@H]3[C@H](O)C[C@@H]4C[C@H](O)CC[C@]4(C)[C@H]3CC[C@]12C [Taurochenodeoxycholic acid]	++ (“++” for values between 500 and 1000)	+++ (“+++” for values above 1000 pmol/mg protein/30 min)	
C[C@H](CCC(=O)NCCS(=O)(=O)O)[C@H]1CC[C@H]2[C@@H]3CC[C@@H]4C[C@H](O)CC[C@]4(C)[C@H]3C[C@H](O)[C@]12C [Taurodeoxycholic acid]	++ (“++” for values between 500 and 1000)	+++ (“+++” for values above 1000 pmol/mg protein/30 min)	
C[C@H](CCC(=O)NCCS(=O)(=O)O)[C@H]1CC[C@H]2[C@@H]3[C@@H](O)C[C@@H]4C[C@H](O)CC[C@]4(C)[C@H]3CC[C@]12C [Tauroursodeoxycholic acid]	++ (“++” for values between 500 and 1000)	+++ (“+++” for values above 1000 pmol/mg protein/30 min)	
C[C@H](CCC(=O)O)[C@H]1CC[C@H]2[C@@H]3[C@@H](O)C[C@@H]4C[C@H](O)CC[C@]4(C)[C@H]3CC[C@]12C [Ursodeoxycholic acid]		+ (Mean uptake of bile acids “+” for values below 500)	
myr-preS1: 2–48 N-terminal amino acids of the myristoylated preS1 domain of the HBV/HDV large envelope protein (GQNLSTSNPLGFFPDHQLDPAFRANTANPDWDFNPNKDTWPDANKVG; N-terminal myristoyl on Gly2)			IC50 (NTCP [2]; read-out: IC50 for inhibition of [3H]DHEAS transport via NTCP, 200 nM DHEAS): 0.167 µM; IC50 (NTCP [2]; read-out: IC50 for inhibition of [3H]TC transport via NTCP, 200 nM TC): 0.182 µM; IC50 (NTCP [2]; read-out: IC50 for inhibition of [3H]TLC transport via NTCP, 200 nM TLC): 0.316 µM
